Experimental data published in patent USRE42890E1, “Furazanobenzimidazoles” (Basilea Pharmaceutica AG, priority 2003, dated 2011).
Read-outs that look alike come from different tables or passages of the source.

What was measured:
Jurkat = experiment: MTS proliferation assay, Jurkat; type: cell-based, human; conditions: 72 h incubation, read-out: MTS proliferation assay IC 50 Jurkat
How it was run: (§1)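 Seed cells (1.5*10^3-10^4/well) 24 h ahead; add compound, final 10/3/1/0.3 μM; incubate 72 h, 37 °C, 7.5% CO2; MTS 3 h; read A492.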

HeLa = experiment: MTS proliferation assay, HeLa; type: cell-based, human; conditions: 72 h incubation, read-out: MTS proliferation assay IC 50 HeLa
How it was run: as §1

Jily = experiment: MTS proliferation assay, Jily; type: cell-based; conditions: 72 h incubation, read-out: MTS proliferation assay IC 50 Jily
How it was run: (§2)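 RPMI-1640 + 5% or 10% FCS; seeded 24 h pre-dose; cpd final 10/3/1/0.3 μM, max 5% DMSO in added volume; 72 h, 37° C, 7.5% CO2; MTS 3 h; A492.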

[1] = test system: adherent cells or suspension cells; experiment: Hoechst 33342 nuclear staining (fraction of apoptotic nuclei); type: cell-based; parameters: key: 0 relating to no activity; 1 relating to weak activity comprising less than 70% of the cells; score 2 relating to strong activity comprising more than 70% of the cells
HT1080 = experiment: MTS proliferation assay, HT1080; type: cell-based, human; conditions: HT1080, 72 h incubation, read-out: MTS proliferation assay IC 50 HT1080
How it was run: as §1

MRC5 = experiment: MTS proliferation assay, MRC5; type: cell-based; conditions: MRC5, 72 h incubation, read-out: MTS proliferation assay IC 50 MRC5
How it was run: as §2

Structure (SMILES) | IC50 (Jurkat) | IC50 (HeLa) | IC50 (HT1080) | IC50 (Jily) | Hoechst 33342 nuclear staining score ([1]; H460, conc 0.01 μm) | Hoechst 33342 nuclear staining score ([1]; H460, conc 0.1 μm) | Hoechst 33342 nuclear staining score ([1]; H460, conc 1 μm) | Hoechst 33342 nuclear staining score ([1]; HeLa, conc 0.01 μm) | Hoechst 33342 nuclear staining score ([1]; HeLa, conc 0.1 μm) | Hoechst 33342 nuclear staining score ([1]; HeLa, conc 1 μm) | Hoechst 33342 nuclear staining score ([1]; Jurkat, conc 0.01 μm) | Hoechst 33342 nuclear staining score ([1]; Jurkat, conc 0.1 μm) | Hoechst 33342 nuclear staining score ([1]; Jurkat, conc 1 μm) | Hoechst 33342 nuclear staining score ([1]; MRC5, conc 0.01 μm) | Hoechst 33342 nuclear staining score ([1]; MRC5, conc 0.1 μm) | Hoechst 33342 nuclear staining score ([1]; MRC5, conc 1 μm) | Hoechst 33342 nuclear staining score ([1]; PBLs, conc 0.01 μm) | Hoechst 33342 nuclear staining score ([1]; PBLs, conc 0.1 μm) | Hoechst 33342 nuclear staining score ([1]; PBLs, conc 1 μm) | IC50 (MRC5) | further results
Nc1nonc1-c1nc2ccccc2n1CC(=O)c1ccc(Cl)cc1Cl [Example 31] | 0.1 to 1 µM | 0.1 to 1 µM | > 1 µM | 0.1 to 1 µM | 0 | 0 | 0 | 0 | 0 | 0 | 0 | 0 | 1 (1 relating to weak activity comprising less than 70% of the cells) | 0 | 0 | 0 | 0 | 0 | 0 | 0.1 to 1 µM | –
Nc1nonc1-c1nc2ccccc2n1CC1CC1 [B, reference compound] | > 1 µM | > 1 µM | > 1 µM | > 1 µM | – | – | – | – | – | – | – | – | – | – | – | – | – | – | – | > 1 µM | Hoechst 33342 nuclear staining score ([1]; H460, conc 3 μm): 0; Hoechst 33342 nuclear staining score ([1]; H460, conc 10 μm): 0; Hoechst 33342 nuclear staining score ([1]; H460, conc 30 μm): 0; Hoechst 33342 nuclear staining score ([1]; HeLa, conc 3 μm): 0; Hoechst 33342 nuclear staining score ([1]; HeLa, conc 10 μm): 0; Hoechst 33342 nuclear staining score ([1]; HeLa, conc 30 μm): 0; Hoechst 33342 nuclear staining score ([1]; Jily, conc 3 μm): 0; Hoechst 33342 nuclear staining score ([1]; Jily, conc 10 μm): 0; Hoechst 33342 nuclear staining score ([1]; Jily, conc 30 μm): 0; Hoechst 33342 nuclear staining score ([1]; Jurkat, conc 3 μm): 0; Hoechst 33342 nuclear staining score ([1]; Jurkat, conc 10 μm): 0; Hoechst 33342 nuclear staining score ([1]; Jurkat, conc 30 μm): 0; Hoechst 33342 nuclear staining score ([1]; MRC5, conc 3 μm): 0; Hoechst 33342 nuclear staining score ([1]; MRC5, conc 10 μm): 0; Hoechst 33342 nuclear staining score ([1]; MRC5, conc 30 μm): 0; Hoechst 33342 nuclear staining score ([1]; PBLs, conc 3 μm): 0; Hoechst 33342 nuclear staining score ([1]; PBLs, conc 10 μm): 0; Hoechst 33342 nuclear staining score ([1]; PBLs, conc 30 μm): 0
Nc1nonc1-c1nc2ccccc2n1COc1ccc(F)cc1 [Example 8, 4-[1-(4-Fluorophenoxymethyl)-1H-benzimidazol-2-yl]-furazan-3-ylamine] | – | – | – | 0.1 to 1 µM | 0 | 0 | 0 | 0 | 0 | 1 (1 relating to weak activity comprising less than 70% of the cells) | 0 | 0 | 1 (1 relating to weak activity comprising less than 70% of the cells) | 0 | 0 | 0 | 0 | 0 | 0 | – | IC50 (Jurkat; Homo sapiens): 0.1 to 1 µM; IC50 (HeLa; Homo sapiens): 0.1 to 1 µM; Hoechst 33342 nuclear staining score ([1]; Jily, conc 0.01 μm): 0; Hoechst 33342 nuclear staining score ([1]; Jily, conc 0.1 μm): 0; Hoechst 33342 nuclear staining score ([1]; Jily, conc 1 μm): 0; IC50 (HT1080; Homo sapiens, HT-1080): 0.1 to 1 µM; IC50 (MRC5; Homo sapiens): 0.1 to 1 µM
CC(C)n1c(-c2nonc2N)nc2ccccc21 [A, reference compound] | > 1 µM | > 1 µM | > 1 µM | > 1 µM | – | – | – | – | – | – | – | – | – | – | – | – | – | – | – | > 1 µM | Hoechst 33342 nuclear staining score ([1]; H460, conc 3 μm): 0; Hoechst 33342 nuclear staining score ([1]; H460, conc 10 μm): 0; Hoechst 33342 nuclear staining score ([1]; H460, conc 30 μm): 0; Hoechst 33342 nuclear staining score ([1]; HeLa, conc 3 μm): 0; Hoechst 33342 nuclear staining score ([1]; HeLa, conc 10 μm): 0; Hoechst 33342 nuclear staining score ([1]; HeLa, conc 30 μm): 0; Hoechst 33342 nuclear staining score ([1]; Jily, conc 3 μm): 0; Hoechst 33342 nuclear staining score ([1]; Jily, conc 10 μm): 0; Hoechst 33342 nuclear staining score ([1]; Jily, conc 30 μm): 0; Hoechst 33342 nuclear staining score ([1]; Jurkat, conc 3 μm): 0; Hoechst 33342 nuclear staining score ([1]; Jurkat, conc 10 μm): 0; Hoechst 33342 nuclear staining score ([1]; Jurkat, conc 30 μm): 0; Hoechst 33342 nuclear staining score ([1]; MRC5, conc 3 μm): 0; Hoechst 33342 nuclear staining score ([1]; MRC5, conc 10 μm): 0; Hoechst 33342 nuclear staining score ([1]; MRC5, conc 30 μm): 0; Hoechst 33342 nuclear staining score ([1]; PBLs, conc 3 μm): 0; Hoechst 33342 nuclear staining score ([1]; PBLs, conc 10 μm): 0; Hoechst 33342 nuclear staining score ([1]; PBLs, conc 30 μm): 0
COc1ccc(C(=O)Cn2c(-c3nonc3N)nc3ccccc32)cc1[N+](=O)[O-] [Example 68] | 0.01 to 0.1 µM | 0.1 to 1 µM | 0.1 to 1 µM | 0.01 to 0.1 µM | 0 | 0 | 2 (score 2 relating to strong activity comprising more than 70% of the cells) | 0 | 0 | 2 (score 2 relating to strong activity comprising more than 70% of the cells) | 0 | 2 (score 2 relating to strong activity comprising more than 70% of the cells) | 2 (score 2 relating to strong activity comprising more than 70% of the cells) | 0 | 0 | 1 (1 relating to weak activity comprising less than 70% of the cells) | 0 | 0 | 0 | 0.1 to 1 µM | Hoechst 33342 nuclear staining score ([1]; Jily, conc 0.01 μm): 0; Hoechst 33342 nuclear staining score ([1]; Jily, conc 0.1 μm): 1 (1 relating to weak activity comprising less than 70% of the cells); Hoechst 33342 nuclear staining score ([1]; Jily, conc 1 μm): 1 (1 relating to weak activity comprising less than 70% of the cells)

Now from value to molecule, other results behind:

IC50 (Jurkat) | IC50 (HeLa) | IC50 (HT1080) | Structure (SMILES) | IC50 (Jily) | Hoechst 33342 nuclear staining score ([1]; H460, conc 0.01 μm) | Hoechst 33342 nuclear staining score ([1]; H460, conc 0.1 μm) | Hoechst 33342 nuclear staining score ([1]; H460, conc 1 μm) | Hoechst 33342 nuclear staining score ([1]; HeLa, conc 0.01 μm) | Hoechst 33342 nuclear staining score ([1]; HeLa, conc 0.1 μm) | Hoechst 33342 nuclear staining score ([1]; HeLa, conc 1 μm) | Hoechst 33342 nuclear staining score ([1]; Jurkat, conc 0.01 μm) | Hoechst 33342 nuclear staining score ([1]; Jurkat, conc 0.1 μm) | Hoechst 33342 nuclear staining score ([1]; Jurkat, conc 1 μm) | Hoechst 33342 nuclear staining score ([1]; MRC5, conc 0.01 μm) | Hoechst 33342 nuclear staining score ([1]; MRC5, conc 0.1 μm) | Hoechst 33342 nuclear staining score ([1]; MRC5, conc 1 μm) | Hoechst 33342 nuclear staining score ([1]; PBLs, conc 0.01 μm) | Hoechst 33342 nuclear staining score ([1]; PBLs, conc 0.1 μm) | Hoechst 33342 nuclear staining score ([1]; PBLs, conc 1 μm) | IC50 (MRC5) | further results
> 1 µM | > 1 µM | > 1 µM | Cc1ccc(/C=C/C(=O)Cn2c(-c3nonc3N)nc3ccccc32)cc1 [Example 119] | > 1 µM | 0 | 0 | 0 | 0 | 0 | 0 | 0 | 0 | 0 | 0 | 0 | 0 | 0 | 0 | 0 | > 1 µM | Hoechst 33342 nuclear staining score ([1]; Jily, conc 0.01 μm): 0; Hoechst 33342 nuclear staining score ([1]; Jily, conc 0.1 μm): 0; Hoechst 33342 nuclear staining score ([1]; Jily, conc 1 μm): 0
0.1 to 1 µM | 0.1 to 1 µM | 0.1 to 1 µM | Nc1nonc1-c1nc2ccccc2n1COc1ccc(CO)cc1 [Example 97] | 0.1 to 1 µM | 0 | 0 | 2 (score 2 relating to strong activity comprising more than 70% of the cells) | 0 | 0 | 2 (score 2 relating to strong activity comprising more than 70% of the cells) | 0 | 0 | 2 (score 2 relating to strong activity comprising more than 70% of the cells) | 0 | 0 | 0 | 0 | 0 | 0 | 0.1 to 1 µM | Hoechst 33342 nuclear staining score ([1]; Jily, conc 0.01 μm): 0; Hoechst 33342 nuclear staining score ([1]; Jily, conc 0.1 μm): 0; Hoechst 33342 nuclear staining score ([1]; Jily, conc 1 μm): 2 (score 2 relating to strong activity comprising more than 70% of the cells)
